According to PMC8333425, “Discovery of a dual Ras and ARF6 inhibitor from a GPCR endocytosis screen” (Nature Communications, 2021):

How the values were obtained:
Test in all cases: KINOMEscan kinase binding assay
[1] = molecular target: T1, 384 kinases from the human genome (Homo sapiens, UniProt P10721)
T1 construct: purchased Eurofin/DiscoverX
Method in brief: (§1)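 A panel of 384 human kinases was profiled by KINOMEscan binding in the presence of 10 µM compound. Kinase–ligand binding was given as percent of DMSO control, averaged from duplicates in a single run, with an S(10) selectivity score.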

[2] = molecular target: T2, 384 kinases from the human genome (Homo sapiens, UniProt Q9UQB9); details: kinase AURKC (Entrez AURKC)
T2 construct: purchased Eurofin/DiscoverX
Method in brief: as §1

[3] = molecular target: T3, 384 kinases from the human genome (Homo sapiens, UniProt P35916); details: kinase FLT4 (Entrez FLT4)
T3 construct: purchased Eurofin/DiscoverX
Method in brief: as §1

[4] = molecular target: T4, 384 kinases from the human genome (Homo sapiens, UniProt P45985); details: kinase MEK4 (Entrez MAP2K4)
T4 construct: purchased Eurofin/DiscoverX
Method in brief: as §1

[5] = molecular target: T5, 384 kinases from the human genome (Homo sapiens, UniProt Q9Y2U5); details: kinase MAP3K2 (Entrez MAP3K2)
T5 construct: purchased Eurofin/DiscoverX
Method in brief: as §1

[6] = molecular target: T6, 384 kinases from the human genome (Homo sapiens, UniProt P21127); details: kinase CDC2L1 (Entrez CDK11B)
T6 construct: purchased Eurofin/DiscoverX
Method in brief: as §1

[7] = molecular target: T7, 384 kinases from the human genome (Homo sapiens, UniProt P78362); details: kinase SRPK2 (Entrez SRPK2)
T7 construct: purchased Eurofin/DiscoverX
Method in brief: as §1

[8] = molecular target: T8, 384 kinases from the human genome (Homo sapiens, UniProt Q9HBY8); details: kinase SGK2 (Entrez SGK2)
T8 construct: purchased Eurofin/DiscoverX
Method in brief: as §1

[9] = molecular target: T9, 384 kinases from the human genome (Homo sapiens, UniProt O95835); details: kinase LATS1 (Entrez LATS1)
T9 construct: purchased Eurofin/DiscoverX
Method in brief: as §1

[10] = molecular target: T10, 384 kinases from the human genome (Homo sapiens, UniProt P09619)
T10 construct: purchased Eurofin/DiscoverX
Method in brief: as §1

[11] = molecular target: T11, 384 kinases from the human genome (Homo sapiens, UniProt P08581); details: kinase MET (Entrez MET)
T11 construct: purchased Eurofin/DiscoverX
Method in brief: as §1

[12] = molecular target: T12, 384 kinases from the human genome (Homo sapiens, UniProt Q9Y2H1); details: kinase NDR2 (Entrez STK38L)
T12 construct: purchased Eurofin/DiscoverX
Method in brief: as §1

[13] = molecular target: T13, 384 kinases from the human genome (Homo sapiens, UniProt P11362); details: kinase FGFR1 (Entrez FGFR1)
T13 construct: purchased Eurofin/DiscoverX
Method in brief: as §1

[14] = molecular target: T14, 384 kinases from the human genome (Homo sapiens, UniProt P43405); details: kinase SYK (Entrez SYK)
T14 construct: purchased Eurofin/DiscoverX
Method in brief: as §1

[15] = molecular target: T15, 384 kinases from the human genome (Homo sapiens, UniProt Q08345); details: kinase DDR1 (Entrez DDR1)
T15 construct: purchased Eurofin/DiscoverX
Method in brief: as §1

[16] = molecular target: T16, 384 kinases from the human genome (Homo sapiens, UniProt Q99558); details: kinase NIK (Entrez MAP3K14)
T16 construct: purchased Eurofin/DiscoverX
Method in brief: as §1

[17] = molecular target: T17, 384 kinases from the human genome (Homo sapiens, UniProt Q16832); details: kinase DDR2 (Entrez DDR2)
T17 construct: purchased Eurofin/DiscoverX
Method in brief: as §1

[18] = molecular target: T18, 384 kinases from the human genome (Homo sapiens, UniProt P42685); details: kinase FRK (Entrez FRK)
T18 construct: purchased Eurofin/DiscoverX
Method in brief: as §1

[19] = molecular target: T19, 384 kinases from the human genome (Homo sapiens, UniProt P08069); details: kinase IGF1R (Entrez IGF1R)
T19 construct: purchased Eurofin/DiscoverX
Method in brief: as §1

[20] = molecular target: T20, 384 kinases from the human genome (Homo sapiens, UniProt Q8TDX7); details: kinase NEK7 (Entrez NEK7)
T20 construct: purchased Eurofin/DiscoverX
Method in brief: as §1

[21] = molecular target: T21, 384 kinases from the human genome (Homo sapiens, UniProt Q96D53); details: kinase ADCK4 (Entrez ADCK4)
T21 construct: purchased Eurofin/DiscoverX
Method in brief: as §1

[22] = molecular target: T22, 384 kinases from the human genome (Homo sapiens, UniProt O00506); details: kinase YSK1 (Entrez STK25)
T22 construct: purchased Eurofin/DiscoverX
Method in brief: as §1

[23] = molecular target: T23, 384 kinases from the human genome (Homo sapiens, UniProt Q13976); details: kinase PRKG1 (Entrez PRKG1)
T23 construct: purchased Eurofin/DiscoverX
Method in brief: as §1

[24] = molecular target: T24, 384 kinases from the human genome (Homo sapiens, UniProt Q02750); details: kinase MEK1 (Entrez MAP2K1)
T24 construct: purchased Eurofin/DiscoverX
Method in brief: as §1

[25] = molecular target: T25, 384 kinases from the human genome (Homo sapiens, UniProt P16591); details: kinase FER (Entrez FER)
T25 construct: purchased Eurofin/DiscoverX
Method in brief: as §1

[26] = molecular target: T26, 384 kinases from the human genome (Homo sapiens, UniProt P04629); details: kinase TRKA (Entrez NTRK1)
T26 construct: purchased Eurofin/DiscoverX
Method in brief: as §1

[27] = 10 µM of 21, compared to DMSO (100%)

T1 sequence (P10721 26-976): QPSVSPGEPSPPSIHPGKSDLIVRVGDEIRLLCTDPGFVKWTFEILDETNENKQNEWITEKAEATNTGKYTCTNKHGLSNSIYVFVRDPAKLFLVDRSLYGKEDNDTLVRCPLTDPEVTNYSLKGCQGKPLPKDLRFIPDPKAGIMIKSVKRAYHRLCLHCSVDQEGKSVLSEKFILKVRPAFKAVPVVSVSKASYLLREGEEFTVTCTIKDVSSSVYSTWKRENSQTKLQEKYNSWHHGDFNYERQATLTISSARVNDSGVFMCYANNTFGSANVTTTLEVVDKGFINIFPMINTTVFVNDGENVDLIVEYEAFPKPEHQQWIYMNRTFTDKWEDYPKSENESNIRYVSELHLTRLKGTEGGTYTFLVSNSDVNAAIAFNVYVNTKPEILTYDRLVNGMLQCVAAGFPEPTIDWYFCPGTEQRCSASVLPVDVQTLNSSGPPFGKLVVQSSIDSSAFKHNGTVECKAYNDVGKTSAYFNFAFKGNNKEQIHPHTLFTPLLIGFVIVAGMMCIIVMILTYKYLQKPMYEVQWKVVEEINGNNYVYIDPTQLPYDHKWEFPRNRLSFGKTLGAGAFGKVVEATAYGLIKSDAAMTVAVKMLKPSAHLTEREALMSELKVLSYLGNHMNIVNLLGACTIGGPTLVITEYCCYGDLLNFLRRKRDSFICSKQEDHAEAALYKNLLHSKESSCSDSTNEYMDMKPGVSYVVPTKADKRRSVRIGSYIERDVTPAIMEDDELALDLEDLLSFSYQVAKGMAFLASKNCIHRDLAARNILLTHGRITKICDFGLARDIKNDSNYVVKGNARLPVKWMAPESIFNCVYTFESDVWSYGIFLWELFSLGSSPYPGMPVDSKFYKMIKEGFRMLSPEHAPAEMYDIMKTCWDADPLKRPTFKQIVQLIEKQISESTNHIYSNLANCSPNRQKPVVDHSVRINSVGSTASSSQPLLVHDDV
T10 sequence (P09619 33-1106): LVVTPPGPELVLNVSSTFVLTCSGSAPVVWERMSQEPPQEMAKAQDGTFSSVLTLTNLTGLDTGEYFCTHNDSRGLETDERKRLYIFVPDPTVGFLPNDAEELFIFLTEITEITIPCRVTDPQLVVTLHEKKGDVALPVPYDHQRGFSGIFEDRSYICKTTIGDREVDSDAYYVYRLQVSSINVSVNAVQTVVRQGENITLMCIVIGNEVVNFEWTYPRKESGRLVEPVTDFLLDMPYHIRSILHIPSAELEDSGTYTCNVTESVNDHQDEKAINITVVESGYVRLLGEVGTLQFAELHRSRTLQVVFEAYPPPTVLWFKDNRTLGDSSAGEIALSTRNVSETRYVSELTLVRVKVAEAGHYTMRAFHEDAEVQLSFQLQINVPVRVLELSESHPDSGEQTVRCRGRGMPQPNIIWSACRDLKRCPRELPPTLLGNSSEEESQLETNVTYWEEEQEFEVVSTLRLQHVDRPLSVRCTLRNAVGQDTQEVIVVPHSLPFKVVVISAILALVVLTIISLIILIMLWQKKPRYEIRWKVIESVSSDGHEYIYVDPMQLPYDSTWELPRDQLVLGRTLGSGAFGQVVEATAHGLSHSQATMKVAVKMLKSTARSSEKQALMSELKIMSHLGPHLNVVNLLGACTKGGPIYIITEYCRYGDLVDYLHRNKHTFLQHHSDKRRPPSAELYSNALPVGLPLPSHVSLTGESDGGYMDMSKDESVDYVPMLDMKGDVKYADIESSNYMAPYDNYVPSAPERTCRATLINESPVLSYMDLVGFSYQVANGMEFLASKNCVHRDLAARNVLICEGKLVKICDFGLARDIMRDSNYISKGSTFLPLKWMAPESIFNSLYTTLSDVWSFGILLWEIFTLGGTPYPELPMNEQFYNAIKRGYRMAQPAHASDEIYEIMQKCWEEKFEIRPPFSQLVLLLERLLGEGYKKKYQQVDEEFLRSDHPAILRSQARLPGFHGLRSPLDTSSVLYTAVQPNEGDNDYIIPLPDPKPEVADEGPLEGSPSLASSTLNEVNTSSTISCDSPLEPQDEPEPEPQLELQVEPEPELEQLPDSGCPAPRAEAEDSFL
T15 sequence (Q08345 19-913): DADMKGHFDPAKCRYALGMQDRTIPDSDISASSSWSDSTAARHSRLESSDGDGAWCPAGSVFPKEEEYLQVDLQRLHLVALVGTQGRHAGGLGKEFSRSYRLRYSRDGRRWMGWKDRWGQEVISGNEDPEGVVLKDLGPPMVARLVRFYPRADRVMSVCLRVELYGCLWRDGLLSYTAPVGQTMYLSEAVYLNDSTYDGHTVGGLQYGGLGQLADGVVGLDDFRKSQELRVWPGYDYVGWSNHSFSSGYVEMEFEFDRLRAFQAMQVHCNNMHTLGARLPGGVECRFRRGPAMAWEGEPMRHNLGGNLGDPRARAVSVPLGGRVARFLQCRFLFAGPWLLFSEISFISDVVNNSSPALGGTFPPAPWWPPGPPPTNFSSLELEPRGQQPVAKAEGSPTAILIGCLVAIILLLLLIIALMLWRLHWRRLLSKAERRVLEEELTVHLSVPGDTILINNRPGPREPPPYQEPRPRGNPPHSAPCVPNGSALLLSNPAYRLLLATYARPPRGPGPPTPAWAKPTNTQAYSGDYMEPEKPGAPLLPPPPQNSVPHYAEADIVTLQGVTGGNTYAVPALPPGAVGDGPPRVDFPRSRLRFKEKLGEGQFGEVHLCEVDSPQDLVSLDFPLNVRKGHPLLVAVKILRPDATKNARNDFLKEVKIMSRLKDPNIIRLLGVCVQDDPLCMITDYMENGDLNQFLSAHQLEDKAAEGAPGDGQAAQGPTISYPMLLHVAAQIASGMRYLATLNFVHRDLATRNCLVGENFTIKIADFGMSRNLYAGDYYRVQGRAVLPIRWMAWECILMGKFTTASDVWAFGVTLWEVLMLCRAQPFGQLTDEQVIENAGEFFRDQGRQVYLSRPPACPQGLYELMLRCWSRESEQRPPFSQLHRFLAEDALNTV
T4 sequence (P45985 whole entry): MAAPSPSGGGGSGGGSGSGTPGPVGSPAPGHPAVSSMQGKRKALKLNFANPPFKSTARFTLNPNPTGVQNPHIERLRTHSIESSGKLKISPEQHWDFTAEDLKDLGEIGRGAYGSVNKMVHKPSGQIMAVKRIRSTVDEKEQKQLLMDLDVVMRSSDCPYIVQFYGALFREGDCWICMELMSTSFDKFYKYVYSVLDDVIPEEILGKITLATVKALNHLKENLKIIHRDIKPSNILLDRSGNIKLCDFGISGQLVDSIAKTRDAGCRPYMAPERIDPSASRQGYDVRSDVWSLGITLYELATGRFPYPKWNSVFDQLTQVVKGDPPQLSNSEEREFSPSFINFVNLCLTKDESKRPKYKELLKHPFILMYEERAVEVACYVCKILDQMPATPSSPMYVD
T22 sequence (O00506 whole entry): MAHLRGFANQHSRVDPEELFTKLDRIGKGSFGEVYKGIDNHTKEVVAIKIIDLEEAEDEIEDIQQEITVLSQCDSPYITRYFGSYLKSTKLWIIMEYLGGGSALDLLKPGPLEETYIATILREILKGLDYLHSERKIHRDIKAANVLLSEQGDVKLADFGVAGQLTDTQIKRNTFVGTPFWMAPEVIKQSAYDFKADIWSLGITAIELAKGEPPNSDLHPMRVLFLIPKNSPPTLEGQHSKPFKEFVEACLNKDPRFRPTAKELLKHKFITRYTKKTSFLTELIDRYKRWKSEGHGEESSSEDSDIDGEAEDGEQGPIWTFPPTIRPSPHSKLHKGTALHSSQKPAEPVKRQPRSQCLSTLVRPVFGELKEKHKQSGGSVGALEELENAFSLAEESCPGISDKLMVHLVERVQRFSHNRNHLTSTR
T17 sequence (Q16832 22-855): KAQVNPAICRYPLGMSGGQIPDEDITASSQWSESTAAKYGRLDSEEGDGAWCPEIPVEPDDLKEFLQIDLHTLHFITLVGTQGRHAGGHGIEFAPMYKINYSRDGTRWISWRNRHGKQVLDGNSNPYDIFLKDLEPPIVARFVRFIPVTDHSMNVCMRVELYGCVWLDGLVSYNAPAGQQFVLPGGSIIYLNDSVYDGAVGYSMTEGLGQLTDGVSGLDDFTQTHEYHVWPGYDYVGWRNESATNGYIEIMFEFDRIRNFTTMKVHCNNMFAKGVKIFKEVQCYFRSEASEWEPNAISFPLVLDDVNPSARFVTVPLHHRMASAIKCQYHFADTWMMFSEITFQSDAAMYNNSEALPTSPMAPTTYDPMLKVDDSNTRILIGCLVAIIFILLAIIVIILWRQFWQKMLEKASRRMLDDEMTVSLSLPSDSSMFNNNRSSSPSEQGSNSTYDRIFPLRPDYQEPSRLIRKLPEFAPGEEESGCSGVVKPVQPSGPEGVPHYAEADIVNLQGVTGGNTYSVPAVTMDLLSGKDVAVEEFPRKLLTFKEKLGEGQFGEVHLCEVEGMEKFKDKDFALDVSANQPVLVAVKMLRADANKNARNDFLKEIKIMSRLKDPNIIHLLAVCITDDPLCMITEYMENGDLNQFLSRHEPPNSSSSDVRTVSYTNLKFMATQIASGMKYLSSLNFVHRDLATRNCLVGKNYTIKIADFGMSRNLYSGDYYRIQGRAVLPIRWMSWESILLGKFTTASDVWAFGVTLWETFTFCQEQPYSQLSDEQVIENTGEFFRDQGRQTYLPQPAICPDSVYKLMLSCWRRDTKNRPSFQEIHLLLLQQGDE
T20 sequence (Q8TDX7 whole entry): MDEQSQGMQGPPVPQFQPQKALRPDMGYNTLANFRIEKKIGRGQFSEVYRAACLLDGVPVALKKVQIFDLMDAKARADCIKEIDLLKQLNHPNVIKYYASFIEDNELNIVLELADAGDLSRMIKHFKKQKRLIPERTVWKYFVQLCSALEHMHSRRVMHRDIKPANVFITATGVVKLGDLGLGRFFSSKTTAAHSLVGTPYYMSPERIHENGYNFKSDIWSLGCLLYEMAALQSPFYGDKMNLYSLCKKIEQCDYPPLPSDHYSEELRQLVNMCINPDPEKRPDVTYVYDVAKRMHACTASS

CC(C)C(=O)N1CCN(c2ccc(NC(=O)c3cc4ccccc4o3)cc2Cl)CC1 [Compound 21]
KIT binding to its ligand affected [1, 27]: more than 90% | Percent Control ([1]; kinase KIT (Entrez KIT)): 5.9% | Percent Control ([1]; kinase KIT-autoinhibited (Entrez KIT)): 93% | Percent Control [2]: 87% | Percent Control [3]: 89% | Percent Control [4]: 93% | Percent Control [5]: 99% | Percent Control [6]: 100% | Percent Control [7]: 80% | Percent Control [8]: 100% | Percent Control [9]: 98% | PDGFRB binding to its ligand affected [10, 27]: more than 90% | Percent Control ([10]; kinase PDGFRB (Entrez PDGFRB)): 2.6% | Percent Control [11]: 91% | Percent Control [12]: 77% | Percent Control [13]: 99% | Percent Control [14]: 98% | Percent Control [15]: 90% | Percent Control [16]: 66% | Percent Control [17]: 100% | Percent Control [18]: 79% | Percent Control [19]: 76% | Percent Control [20]: 100% | Percent Control [21]: 77% | Percent Control [22]: 100% | Percent Control [23]: 96% | Percent Control [24]: 76% | Percent Control [25]: 90% | Percent Control [26]: 14%
